Assay results taken from PMC5482217 (Journal of the American Chemical Society, 2016).
In brackets after ≈: the same amount, converted by molar mass.

Legend:
[1] = system: C. elegans; details: in vivo, 50 µM
[2] = system: S. enteritidis; assay type: cell-based
[3] = system: M. smegmatis
[4] = system: S. flexneri; assay type: cell-based
[5] = system: S. aureus; assay type: cell-based
[6] = system: B. abortus; assay type: cell-based
[7] = system: M. tuberculosis; assay type: cell-based
[8] = system: E. coli; assay type: cell-based
[9] = system: S. aureus clinical isolate that forms biofilms; assay type: cell-based
[10] = system: M. tuberculosis; details: after 10 days; cited from earlier work

SMILES	viability of C. elegans [1]	MIC [2]	MIC [3]	MIC [4]	MIC [5]	MIC [6]	MIC [7]	MIC [8]	MIC [9]	reduction in M. tuberculosis levels within THP-1 macrophages [10]
CC[C@H](C)[C@H](NC(=O)CN)C(=O)NCC(=O)N[C@@H](C)C(=O)N[C@H](C(=O)N[C@@H](CC(C)C)C(=O)N[C@@H](CCCCN)C(=O)N[C@H](C(=O)N[C@@H](CC(C)C)C(=O)N[C@H](C(=O)N[C@H](C(=O)NCC(=O)N[C@@H](CC(C)C)C(=O)N1CCC[C@H]1C(=O)N[C@@H](C)C(=O)N[C@@H](CC(C)C)C(=O)N[C@H](C(=O)N[C@@H](CO)C(=O)N[C@@H](Cc1c[nH]c2ccccc12)C(=O)N[C@H](C(=O)N[C@@H](CCCCN)C(=O)N[C@@H](CCCNC(=N)N)C(=O)N[C@@H](CCCCN)C(=O)N[C@@H](CCCNC(=N)N)C(=O)N[C@@H](CCC(N)=O)C(=O)N[C@@H](CCC(N)=O)C(N)=O)[C@@H](C)CC)[C@@H](C)CC)[C@@H](C)O)[C@@H](C)O)C(C)C)C(C)C [melittin]	no live worms									
NC[C@H]1O[C@H](O[C@H]2[C@H](O)[C@@H](O[C@H]3O[C@H](CO)[C@@H](O)[C@H](N)[C@H]3O)[C@H](N)C[C@@H]2N)[C@H](O)[C@@H](O)[C@@H]1O [kanamycin]	> 90%	16 µM (≈ 7.75 µg/mL)	8 µM (≈ 3.88 µg/mL)	2 µM (≈ 0.969 µg/mL)	2 µM (≈ 0.969 µg/mL)	4 µM (≈ 1.94 µg/mL)	2 µM (≈ 0.969 µg/mL)	2 µM (≈ 0.969 µg/mL)	4 µM (≈ 1.94 µg/mL)	about 50%
